Reference: US8343475B2, “Small cationic antimicrobial peptides” (priority 2006, dated 2013)
No end group written: not given here.

Key:
Test in all cases: Chemokine induction in PBMC (capture ELISA)
Assay type in all cases: cell-based
[1] = tested on: MCP-1 release by human PBMC; conditions: background (204) subtracted
Method: FIG. 15. Induction of MCP-1 release by 7.5×10^5 human PBMC in response to treatment with 20 or 100 μg/ml of different peptides for 24 hours.
(§1) Venous blood (20 ml) from healthy volunteers was collected in Vacutainer® collection tubes containing sodium heparin as an anticoagulant (Becton Dickinson, Mississauga, ON) in accordance with UBC ethical approval and guidelines. Blood was diluted 1:1 with complete RPMI 1640 medium and separated by centrifugation over a Ficoll-Paque® Plus (Amersham Biosciences, Piscataway, N.J., USA) density gradient. White blood cells were isolated from the buffy coat, washed twice in RPMI 1640 complete medium, and the number of peripheral blood mononuclear cells (PBMC) was determined by trypan blue exclusion. PBMC (5×10^5) were seeded into 12-well tissue culture dishes (Falcon; Becton Dickinson) at 0.75 to 1×10^6 cells/ml at 37° C. in 5% CO2. The above conditions were chosen to mimic conditions for circulating blood monocytes entering tissues at the site of infection via extravasation.
(§2) Following incubation of the cells under various treatment regimens, the tissue culture supernatants were centrifuged at 1000×g for 5 min, then at 10,000×g for 2 min to obtain cell-free samples. Supernatants were aliquoted and then stored at −20° C. prior to assay for various chemokines by capture ELISA (eBioscience and BioSource International Inc., CA, USA respectively)

[2] = tested on: MCP-3 release by human PBMC; conditions: background (6) subtracted
Method: FIG. 16. Induction of MCP3 release by 7.5×10^5 human PBMC in response to treatment with 20 or 100 μg/ml of different peptides for 24 hours.
as §1, §2

[3] = tested on: CXCL1 (Gro-α) release by human PBMC; conditions: background (196) subtracted
Method: FIG. 17. Induction of CXCL1 (Gro-α) release by 7.5×10^5 human PBMC in response to treatment with 20 or 100 μg/ml of different peptides for 24 hours.
as §1, §2

Substance	Chemokine induction MCP-1 ([1]; 20 μg/ml peptide)	Chemokine induction MCP-1 ([1]; 100 μg/ml peptide)	Chemokine induction MCP-3 ([2]; 20 μg/ml peptide)	Chemokine induction MCP-3 ([2]; 100 μg/ml peptide)	Chemokine induction Gro-α ([3]; 20 μg/ml peptide)	Chemokine induction Gro-α ([3]; 100 μg/ml peptide)
1027 (KKQVSRVKVWRK) [compound 1027]	54 pg/mL	1466 pg/mL	0 pg/mL	14 pg/mL	8 pg/mL	204 pg/mL
1044 (RRWIVWI) [compound 1044]	1561 pg/mL	5024 pg/mL	115 pg/mL	261 pg/mL	1963 pg/mL	1545 pg/mL
1015 (VLIRWNGKK) [compound 1015]	113 pg/mL	644 pg/mL	0 pg/mL	10 pg/mL	42 pg/mL	178 pg/mL
1048 (IRWVIRW) [compound 1048]	96 pg/mL	38 pg/mL	0 pg/mL	0 pg/mL	7 pg/mL	-11 pg/mL
1004 (RFWKVRVKYIRF) [compound 1004]	300 pg/mL	1680 pg/mL	1 pg/mL	30 pg/mL	55 pg/mL	336 pg/mL
1014 (RQVIVRRW) [compound 1014]	83 pg/mL	175 pg/mL	0 pg/mL	1 pg/mL	6 pg/mL	15 pg/mL
1039 (IWVIRRVWR) [compound 1039]	603 pg/mL	2420 pg/mL	13 pg/mL	67 pg/mL	469 pg/mL	1717 pg/mL
1038 (IVVRRVIRK) [compound 1038]	25 pg/mL	1552 pg/mL	0 pg/mL	41 pg/mL	12 pg/mL	518 pg/mL
1023 (IRVWVLRQR) [compound 1023]	250 pg/mL	712 pg/mL	0 pg/mL	1 pg/mL	36 pg/mL	38 pg/mL
1025 (RRIVKKFQIVRR) [compound 1025]	109 pg/mL	284 pg/mL	1 pg/mL	3 pg/mL	-3 pg/mL	32 pg/mL
VIWIRWR (VIWIRWR-NH2) [compound 1041]	146 pg/mL	1218 pg/mL	7 pg/mL	53 pg/mL	110 pg/mL	450 pg/mL
1008 (RIKWIVRFR) [compound 1008]	633 pg/mL	1775 pg/mL	1 pg/mL	22 pg/mL	109 pg/mL	869 pg/mL
1007 (WNRVKWIRR) [compound 1007]	103 pg/mL	247 pg/mL	7 pg/mL	28 pg/mL	65 pg/mL	170 pg/mL
FRIRVRVIR (FRIRVRVIR-NH2) [compound 1030]	139 pg/mL	2075 pg/mL	1 pg/mL	35 pg/mL	10 pg/mL	674 pg/mL
1017 (KRIVRRLVARIV) [compound 1017]	585 pg/mL	1019 pg/mL	0 pg/mL	0 pg/mL	56 pg/mL	250 pg/mL
1022 (LRIRVIVWR) [compound 1022]	52 pg/mL	983 pg/mL	0 pg/mL	1 pg/mL	10 pg/mL	64 pg/mL
1042 (IVWIWRR) [compound 1042]	-7 pg/mL	12 pg/mL	3 pg/mL	3 pg/mL	44 pg/mL	9 pg/mL
1045 (RWWRIVI) [compound 1045]	-2 pg/mL	989 pg/mL	0 pg/mL	31 pg/mL	13 pg/mL	435 pg/mL
1040 (FQVVKIKVR) [compound 1040]	74 pg/mL	1143 pg/mL	0 pg/mL	9 pg/mL	2 pg/mL	264 pg/mL
LVRAIQVRAVIR (LVRAIQVRAVIR-NH2) [compound 1001]	516 pg/mL	2491 pg/mL	0 pg/mL	40 pg/mL	88 pg/mL	850 pg/mL
1019 (IVVWRRQLVKNK) [compound 1019]	27 pg/mL	438 pg/mL	0 pg/mL	0 pg/mL	5 pg/mL	43 pg/mL
WIVIWRR (WIVIWRR-NH2) [compound 1043]	98 pg/mL	1998 pg/mL	0 pg/mL	21 pg/mL	26 pg/mL	881 pg/mL
1024 (RIRVIVLKK) [compound 1024]	285 pg/mL	81 pg/mL	1 pg/mL	0 pg/mL	20 pg/mL	-21 pg/mL
1034 (KQFRNRLRIVKK) [compound 1034]	434 pg/mL	796 pg/mL	0 pg/mL	4 pg/mL	60 pg/mL	61 pg/mL
1046 (WIRVIRW) [compound 1046]	46 pg/mL	449 pg/mL	1 pg/mL	4 pg/mL	38 pg/mL	147 pg/mL
1047 (IIRRWWV) [compound 1047]	8 pg/mL	130 pg/mL	0 pg/mL	0 pg/mL	-1 pg/mL	-3 pg/mL
1016 (LRIRWIFKR) [compound 1016]	269 pg/mL	819 pg/mL	1 pg/mL	27 pg/mL	26 pg/mL	247 pg/mL
WRWRVRVWR (WRWRVRVWR-NH2) [compound 1031]	875 pg/mL	552 pg/mL	9 pg/mL	9 pg/mL	172 pg/mL	112 pg/mL
1021 (VRLRIRVAV) [compound 1021]	158 pg/mL	276 pg/mL	3 pg/mL	10 pg/mL	29 pg/mL	112 pg/mL
1029 (KQFRIRVRV) [compound 1029]	296 pg/mL	205 pg/mL	3 pg/mL	3 pg/mL	49 pg/mL	60 pg/mL
